# Results taken from patent publication US20200031778A1, “NOVEL 5-SUBSTITUTED IMIDAZOLYLMETHYL DERIVATIVES” (Bayer CropScience Aktiengesellschaft, priority 2016, published 2020).
# How the values were obtained:
# [1] = Log P by HPLC on reversed phase columns (EEC directive 79/831 Annex V.A8; methods [a], [b], [c]); format: physicochemical; conditions: reversed phase HPLC column; method [a]: LC-UV, acidic range, 0.1% formic acid in water and acetonitrile as eluent (linear gradient from 10% to 95% acetonitrile)
# In short: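 Log P derived from retention times, interpolated linearly between bracketing straight-chain alkan-2-ones (3–16 carbons) of known Log P. Eluents ran acetonitrile 10% to 95% against water with 0.1% formic acid ([a], acidic), 0.001 M ammonium acetate ([b], neutral) or 0.1% phosphoric acid ([c], acidic); UV read-out.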
# Puccinia recondita = assay: Example IX-A: in vivo preventive test on Puccinia recondita (brown rust on wheat); conditions: 264 h, compounds of formula IX, 500 ppm of active ingredient, wheat plants, preventive spray, evaluated 11 days after inoculation, read-out: efficacy
# In short: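 Young wheat plants sprayed with compound in DMSO/acetone/Tween 80 diluted in water, inoculated 24 h later with spore suspension. Incubated 24 h at 20 °C, 100% RH, then 10 days at 20 °C, 70-80% RH. Efficacy scored 11 days post-inoculation, 0% equal to solvent-treated controls, 100% no disease.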
# Septoria tritici = assay: Example IX-B: in vivo preventive test on Septoria tritici (leaf spot on wheat); conditions: Zymoseptoria tritici, 576 h; compounds of formula IX; 500 ppm of active ingredient; wheat plants, preventive spray; evaluated 24 days after inoculation; read-out: efficacy
# In short: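 Wheat seedlings sprayed preventively with compound dissolved in DMSO/acetone/Tween 80 and diluted in water; solvent-only controls. Spore suspension of S. tritici sprayed 24 h later; 72 h at 18 °C/100% RH, then 21 days at 20 °C/90% RH. Efficacy scored 24 days post-inoculation, 0% = control, 100% = no disease.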
# Sphaerotheca fuliginea = assay: Example IX-C: in vivo preventive test on Sphaerotheca fuliginea (powdery mildew on cucurbits); conditions: Podosphaera fuliginea, 360 h; compounds of formula IX; 500 ppm of active ingredient; gherkin plants, preventive spray; evaluated 15 days after inoculation; read-out: efficacy
# In short: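 Young gherkin plants sprayed with compound in DMSO/acetone/Tween 80 diluted in water, then inoculated 24 h later with Sphaerotheca fuliginea spores. Kept 72 h at 18 °C/100% RH, then 12 days at 20 °C/70-80% RH; efficacy scored 15 days post-inoculation, 0% = control, 100% = no disease.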
# Uromyces appendiculatus = assay: Example IX-D: in vivo preventive test on Uromyces appendiculatus (bean rust); conditions: 264 h, compounds of formula IX, 500 ppm of active ingredient, bean plants, preventive spray, evaluated 11 days after inoculation, read-out: efficacy
# Method: Example IX-D: In Vivo Preventive Test on Uromyces Appendiculatus (Bean Rust)
# The active ingredients are made soluble and homogenized in a mixture of Dimethyl sulfoxide/Acetone/Tween® 80 and then diluted in water to the desired concentration.
# The young plants of bean are treated by spraying the active ingredient prepared as described above. Control plants are treated only with an aqueous solution of Acetone/Dimethyl sulfoxide/Tween® 80.
# After 24 hours, the plants are contaminated by spraying the leaves with an aqueous suspension of Uromyces appendiculatus spores. The contaminated bean plants are incubated for 24 hours at 20° C. and at 100% relative humidity and then for 10 days at 20° C. and at 70-80% relative humidity.
# The test is evaluated 11 days after the inoculation. 0% means an efficacy which corresponds to that of the control plants while an efficacy of 100% means that no disease is observed.
# control plants while an efficacy of 100% means that no disease was observed.
chromatographic logP [1],Compound,pest or weed control at 500 ppm (Puccinia recondita),pest or weed control at 500 ppm (Septoria tritici),pest or weed control at 500 ppm (Sphaerotheca fuliginea),pest or weed control at 500 ppm (Uromyces appendiculatus)
3.65,N#Cc1cncn1CC(=O)c1ccc(Oc2ccc(Br)cc2)cc1C(F)(F)F [IX-59],90 to 100%,90 to 100%,90 to 100%,90 to 100%
3.07,O=C(Cn1cncc1Br)c1ccc(Oc2ccc(Cl)cc2)cc1Cl [IX-18],90 to 100%,90 to 100%,90 to 100%,90 to 100%
3.16,O=C(Cn1cncc1Br)c1ccc(Oc2ccc(Br)cc2)cc1Br [IX-36],80 to 89%,90 to 100%,90 to 100%,90 to 100%
2.56,O=C(Cn1cncc1F)c1cnc(Oc2ccc(C(F)(F)F)cc2)cc1Cl [IX-110],90 to 100%,90 to 100%,90 to 100%,90 to 100%
2.52,O=C(Cn1cncc1F)c1ccc(Oc2ccc(Cl)cc2)cc1Cl [IX-65],90 to 100%,90 to 100%,90 to 100%,90 to 100%
2.94,N#Cc1cncn1CC(=O)c1ccc(Oc2ccc(Br)cn2)cc1Cl [IX-77],90 to 100%,90 to 100%,90 to 100%,90 to 100%
3.55,O=C(Cn1cncc1Br)c1ccc(Oc2ccc(I)cc2)cc1Br [IX-42],80 to 89%,90 to 100%,90 to 100%,90 to 100%
2.39,O=C(Cn1cncc1F)c1cnc(Oc2ccc(Cl)cc2)cc1Br [IX-93],80 to 89%,90 to 100%,90 to 100%,90 to 100%
2.82,O=C(Cn1cncc1Cl)c1cnc(Oc2ccc(Cl)cc2)cc1Br [IX-50],80 to 89%,90 to 100%,90 to 100%,90 to 100%
2.5,O=C(Cn1cncc1F)c1cnc(Oc2ccc(Cl)cc2)cc1C(F)(F)F [IX-104],90 to 100%,90 to 100%,90 to 100%,90 to 100%
3.09,Cc1ccc(Oc2ccc(C(=O)Cn3cncc3Cl)c(Cl)c2)cc1 [IX-07],90 to 100%,90 to 100%,90 to 100%,90 to 100%
2.32,O=C(Cn1cncc1Cl)c1ccc(Oc2ccc(Br)nc2)cc1Cl [IX-78],80 to 89%,90 to 100%,90 to 100%,90 to 100%
2.75,O=C(Cn1cncc1Cl)c1ccc(Oc2ccc(Cl)cc2)cc1F [IX-45],90 to 100%,90 to 100%,90 to 100%,70 to 79%
3.39,N#Cc1cncn1CC(=O)c1ccc(Oc2ccc(Cl)cc2)cc1C(F)F [IX-75],90 to 100%,90 to 100%,90 to 100%,90 to 100%
2.89,O=C(Cn1cncc1F)c1cnc(Oc2ccc(OC(F)(F)F)cc2)cc1C(F)(F)F [IX-108],80 to 89%,90 to 100%,90 to 100%,90 to 100%
3.35,O=C(Cn1cncc1Br)c1ccc(Oc2ccc(I)cc2)cc1Cl [IX-32],80 to 89%,90 to 100%,90 to 100%,90 to 100%

chromatographic logP [1],Compound,pest or weed control at 500 ppm (Puccinia recondita),pest or weed control at 500 ppm (Septoria tritici),pest or weed control at 500 ppm (Sphaerotheca fuliginea),pest or weed control at 500 ppm (Uromyces appendiculatus)
2.88,O=C(Cn1cncc1F)c1ccc(Oc2ccc(Cl)cc2)cc1C(F)(F)F [IX-83],80 to 89%,90 to 100%,80 to 89%,90 to 100%
2.73,O=C(Cn1cncc1Cl)c1ccc(Oc2ccc(F)cc2)cc1Cl [IX-08],80 to 89%,90 to 100%,90 to 100%,90 to 100%
3.64,N#Cc1cncn1CC(=O)c1cnc(Oc2ccc(OC(F)(F)F)cc2)cc1C(F)(F)F [IX-112],80 to 89%,80 to 89%,90 to 100%,90 to 100%
3.8,N#Cc1cncn1CC(=O)c1ccc(Oc2ccc(I)cc2)cc1Br [IX-66],90 to 100%,90 to 100%,90 to 100%,90 to 100%
3.46,N#Cc1cncn1CC(=O)c1ccc(Oc2ccc(Cl)cc2)cc1Cl [IX-31],90 to 100%,90 to 100%,90 to 100%,90 to 100%
3.29,N#Cc1cncn1CC(=O)c1cnc(Oc2ccc(C(F)(F)F)cc2)cc1Cl [IX-114],90 to 100%,90 to 100%,80 to 89%,90 to 100%
3.33,O=C(Cn1cncc1Cl)c1ccc(Oc2ccc(C(F)(F)F)cc2)cc1Cl [IX-14],90 to 100%,90 to 100%,90 to 100%,90 to 100%
2.12,O=C(Cn1cncc1F)c1ccc(Oc2ccc(C(F)F)cc2)nc1Cl [IX-84],80 to 89%,90 to 100%,90 to 100%,90 to 100%
3.85,O=C(Cn1cncc1C(F)(F)F)c1ccc(Oc2ccc(Cl)cc2)cc1F [IX-80],90 to 100%,90 to 100%,90 to 100%,90 to 100%
2.64,O=C(Cn1cncc1F)c1cnc(Oc2ccc(C(F)(F)F)cc2)cc1Br [IX-111],80 to 89%,90 to 100%,90 to 100%,90 to 100%
3.17,N#Cc1cncn1CC(=O)c1cnc(Oc2ccc(Cl)cc2)cc1C(F)(F)F [IX-109],70 to 79%,90 to 100%,90 to 100%,90 to 100%
3.08,N#Cc1cncn1CC(=O)c1cnc(Oc2ccc(Cl)cc2)cc1Br [IX-92],80 to 89%,90 to 100%,90 to 100%,80 to 89%
3.37,O=C(Cn1cncc1Cl)c1ccc(Oc2ccc(Cl)cc2)cc1C(F)(F)F [IX-30],70 to 79%,90 to 100%,80 to 89%,90 to 100%
3.55,"N#Cc1cncn1CC(=O)c1ccc(Oc2ccc(Br)cc2)cc1Cl [IX-58, 1-[4-(4-bromophenoxy)-2-chloro-phenyl]-2-(5-cyanoimidazol-1-yl)ethanone]",90 to 100%,90 to 100%,90 to 100%,90 to 100%
3.35,O=C(Cn1cncc1Cl)c1ccc(Oc2ccc(I)cc2)cc1Br [IX-38],90 to 100%,90 to 100%,90 to 100%,90 to 100%
